In patent US9073892B2, “Indazolyl triazol derivatives” (Merck Serono S.A., priority 2010, dated 2015):
Counter-ions that a name gives are not always drawn.

Key:
LPS-induced TNFα release = assay: LPS-induced cytokine release in mice (TNFα); assay type: in vivo; conditions: female C57B6 mice; for inhibition of LPS-induced TNFα release in mice: 30 min before LPS 1 mg/kg i.p., serum 2 hours after LPS
Method: (§1) LPS-Induced Cytokine Release in Mice
(§2) Female C57B6 mice (8-10 weeks 4-6 mice/group) were dosed p.o. with vehicle (40% Kleptose in water), reference compound dexamethasone (1 mg/kg) or three different doses of compound 1 (10, 30 and 60 mg/kg at 10 mL/kg). 30 minutes after compound administrations mice were injected i.p. with LPS (0111:B4, 1 mg/kg). 2 hours after LPS injection mice were sacrificed. Serum was collected; cytokine levels (TNF-α and IL-6) were detected by ELISA or OBA.

LPS-induced IL-6 release = assay: LPS-induced cytokine release in mice (IL-6); assay type: in vivo; conditions: female C57B6 mice; for inhibition of LPS-induced IL-6 release in mice: 30 min before LPS 1 mg/kg i.p., serum 2 hours after LPS
Method: as §1, §2

[1] = system: IL-6 secretion in human PBMC; assay: IRAK IL-6 secretion functional assay in human PBMC; assay type: cell-based; conditions: preincubated 1 h with test article, stimulated with 10 ng/ml IL1, 18-20 h, ELISA
Method: IRAK IL-6 Secretion Functional Assay in Human PBMC
Human PBMCs from healthy volunteers were purified from buffy coats of heparinized whole blood by density centrifugation on Ficoll-Hypaque. Isolated PBMCs were washed twice in PBS, counted, and seeded at a density of 7×10^4 cells/well in 180 µl of complete RPMI 1640 medium containing 10% heat-inactivated FBS. PBMC were preincubated for 1 h with serial dilutions of test article dissolved in DMSO (final DMSO concentration 0.33%) at 37° C. in a 5% CO2 incubator. PBMC were then stimulated with 10 ng/ml of IL1-(final volume […]) and incubation was continued for 18-20 h. The supernatants were collected and IL-6 was quantified using the Duo-set ELISA kit (R&D Systems) following manufacturer's instructions

[2] = system: IL1β-induced IL8 release in THP1 cells; assay: IRAK IL8 secretion functional assay; assay type: cell-based; conditions: Homo sapiens; THP-1 cells, IL1β 100 ng/ml overnight, IL8 by HTRF; read-out: IC50, Secretion THP-1/IL-β induced IL8 release
Method in brief: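 THP-1 cells (30,000/well, RPMI 1640) were incubated overnight at 37 °C, 5% CO2 with compound (20 μM to 1 nM) plus IL1β at 100 ng/ml final. IL-8 in the supernatant was measured by HTRF with europium cryptate- and XL665-labelled anti-IL8 antibodies, read after 3 h at 30 °C.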

IRAK1/4 human = system: T1, IRAK1/4 human; assay: IRAK1/4 phosphorylation IC50 (enzymatic assay, table 2); assay type: biochemical; conditions: human IRAK1/4 phosphorylation
T1 construct: fused on or other part: His tag and TEV cleavage site at the N-terminus
Method in brief: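 His-TEV-tagged human IRAK-1 or IRAK-4 (IRAK-4 with STK1-biotin peptide) was incubated in 384-well plates with ATP and compounds in DMSO from 20 µM to 1 nM, with 2% DMSO controls. The buffer was Hepes pH7.0 50 mM with MgCl2, DTT, EGTA and BSA, and reactions ran 2 or 3 hours. Inhibition was reported as IC50.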

Compound | IC50 [1] | IC50 [2] | IC50 (IRAK1/4 human) | also measured
Cc1ccc2c(-c3cn(-c4ccc(C5CCNCC5)cc4)nn3)n[nH]c2c1 (as salt: HCl) [Example 265] |  |  |  | melting point: 303 °C
O=C(c1ccc(-n2cc(-c3n[nH]c4ccccc34)nn2)cc1)N1CCOCC1 [Example 1, 3-{1-[4-(morpholin-4-ylcarbonyl)phenyl]-1H-1,2,3-triazol-4-yl}-1H-indazole] | 200 to 2000 nM | 100 to 1000 nM | 100 to 1000 nM | LPS-induced TNFα release in mice (result in words) (LPS-induced TNFα release; 10, 30 and 60 mg/kg p.o.): inhibits dose dependently; inhibition of LPS-induced TNFα release in mice (LPS-induced TNFα release; 10 mpk po): 36% INH; inhibition of LPS-induced TNFα release in mice (LPS-induced TNFα release; 30 mpk po): 43% INH; inhibition of LPS-induced TNFα release in mice (LPS-induced TNFα release; 60 mpk po): 61% INH; LPS-induced IL-6 release in mice (result in words) (LPS-induced IL-6 release; 10, 30 and 60 mg/kg p.o.): inhibits dose dependently; inhibition of LPS-induced IL-6 release in mice (LPS-induced IL-6 release; 10 mpk po): 9% INH; inhibition of LPS-induced IL-6 release in mice (LPS-induced IL-6 release; 30 mpk po): 25% INH; inhibition of LPS-induced IL-6 release in mice (LPS-induced IL-6 release; 60 mpk po): 66% INH
O=C(c1ccc(-n2cc(-c3n[nH]c4ccccc34)nn2)cc1)N1CCCC(CN2CCCC2)C1 (stereo not shown) [Example 2, 3-[1-(4-{[3-(pyrrolidin-1-ylmethyl)piperidin-1-yl]carbonyl}phenyl)-1H-1,2,3-triazol-4-yl]-1H-indazole] | 200 to 2000 nM | < 100 nM | < 100 nM | 
Cc1ccc2[nH]nc(-c3cn(-c4ccc(CN5CCOCC5)cc4)nn3)c2c1 [Example 7, 5-methyl-3-{1-[4-(morpholin-4-ylmethyl)phenyl]-1H-1,2,3-triazol-4-yl}-1H-indazole] | 200 to 2000 nM | 100 to 1000 nM | 100 to 1000 nM | 
O=C(c1ccc(-n2cc(-c3n[nH]c4ccccc34)nn2)cc1)N1CCCC(O)C1 (stereo not shown) [Example 30] | 200 to 2000 nM | 100 to 1000 nM | 100 to 1000 nM | 
O=C(c1ccc(-n2cc(-c3n[nH]c4ccccc34)nn2)cc1)N1CCCC(CO)C1 (stereo not shown) [Example 33] | < 200 nM | 100 to 1000 nM | < 100 nM | 
CN1CCC(c2ccc3[nH]nc(-c4cn(-c5ccc(C(=O)N6CCOCC6)cc5)nn4)c3c2)CC1 [Example 124, 5-(1-methylpiperidin-4-yl)-3-{1-[4-(morpholin-4-ylcarbonyl)phenyl]-1H-1,2,3-triazol-4-yl}-1H-indazole] | < 200 nM | 100 to 1000 nM | < 100 nM | 
CN1C2CCC1CC(n1cc(NC(=O)c3ccc(-n4cc(-c5n[nH]c6ccccc56)nn4)cc3)cn1)C2 (stereo not shown) [Example 125, 4-[4-(1H-indazol-3-yl)-1H-1,2,3-triazol-1-yl]-N-[1-(8-methyl-8-azabicyclo[3.2.1]oct-3-yl)-1H-pyrazol-4-yl]benzamide] | 200 to 2000 nM | 100 to 1000 nM | < 100 nM | 
c1ccc2c(-c3cn(-c4ccc(C5CCNCC5)cc4)nn3)n[nH]c2c1 [Example 132, 3-[1-(4-piperidin-4-ylphenyl)-1H-1,2,3-triazol-4-yl]-1H-indazole hydrochloride] | 200 to 2000 nM |  | 100 to 1000 nM | 
Cc1ccc2c(-c3cn(-c4ccc(C5CCN(CC(O)C(F)(F)F)CC5)cc4)nn3)n[nH]c2c1 (stereo not shown) [Example 136, 1,1,1-trifluoro-3-(4-{4-[4-(6-methyl-1H-indazol-3-yl)-1H-1,2,3-triazol-1-yl]phenyl}piperidin-1-yl)propan-2-ol] | 200 to 2000 nM |  | < 100 nM | 
c1ccc2c(-c3cn(-c4ccc(CN5C[C@@H]6C[C@H]5CO6)cc4)nn3)n[nH]c2c1 [Example 145, 3-(1-{4[(1S,4S)-2-oxa-5-azabicyclo[2.2.1]hept-5-ylmethyl]phenyl}-1H-1,2,3-triazol-4-yl)-1H-indazole] | 200 to 2000 nM |  | 100 to 1000 nM | 
CN(C)C1CCN(C(=O)c2ccc(-n3cc(-c4n[nH]c5ccc(F)cc45)nn3)cc2)CC1 [Example 158] | < 200 nM |  |  | 
c1ccc2c(-c3cn(-c4ccc(CN5CCOCC5)cc4)nn3)n[nH]c2c1 [Example 188] | 200 to 2000 nM |  | 100 to 1000 nM | 
O=c1ccc(-c2cccnc2)nn1Cc1ccc2[nH]nc(-c3cn(-c4ccc(CN5CCOCC5)cc4)nn3)c2c1 [Example 197] | < 200 nM |  | < 100 nM | 
O=C(c1ccc(-n2cc(-c3n[nH]c4ccc(C5CCCNC5)cc34)nn2)cc1)N1CCOCC1 (stereo not shown) [Example 204] | 200 to 2000 nM |  | < 100 nM | 
O=C(c1ccc(-n2cc(-c3n[nH]c4cc(-c5cccnc5)ccc34)nn2)cc1)N1CCOCC1 [Example 210] | 200 to 2000 nM |  | 100 to 1000 nM | 
Cc1ccc2c(-c3cn(-c4cnn(C5CC6CCC(C5)N6C)c4)nn3)n[nH]c2c1 (stereo not shown) [Example 224] | 200 to 2000 nM |  | < 100 nM | 
O=C(NC1CCCNC1)c1ccc2[nH]nc(-c3cn(-c4ccc(CN5CCOCC5)cc4)nn3)c2c1 (stereo not shown) [Example 238] | < 200 nM |  | < 100 nM | 
CN1[C@@H]2CC[C@H]1C[C@@H](c1ccc(-n3cc(-c4n[nH]c5ccccc45)nn3)cc1)C2 [Example 251] | 200 to 2000 nM |  | 100 to 1000 nM | 
Cc1ccc2c(-c3cn(-c4ccc(C5CCN(C6CCOCC6)CC5)cc4)nn3)n[nH]c2c1 [Example 298] | 200 to 2000 nM |  | 100 to 1000 nM | 
C[C@@H]1C[C@H]2[C@@H]3CCC4=CC(=O)C=C[C@]4(C)[C@@]3(F)[C@@H](O)C[C@]2(C)[C@@]1(O)C(=O)CO [dexamethasone, reference compound] |  |  |  | inhibition of LPS-induced TNFα release in mice (LPS-induced TNFα release; 1 mpk po): 97% INH; inhibition of LPS-induced IL-6 release in mice (LPS-induced IL-6 release; 1 mpk po): 83% INH
